In patent US20170176446A1, “Methods for Determining the Oncogenic Condition of Cell, Uses Thereof, and Methods for Treating Cancer” (INSERM (INSTITUT NATIONAL DE LA SANTE ET DE LA RECHERCHE …, priority 2009, published 2017):

Legend:
ChEH = target: T1, ChEH (Rattus norvegicus, UniProt Q9JJ46); assay: Determination of the Ki for ChEH on rat liver microsome proteins (Dixon method); assay type: biochemical; settings: 150 μg rat liver microsome proteins, [14C]CEα
T1 construct: 150 μg of rat liver microsome proteins are incubated; from tissue; host or cells: rat liver microsomes
T1 sequence (Q9JJ46 1-230): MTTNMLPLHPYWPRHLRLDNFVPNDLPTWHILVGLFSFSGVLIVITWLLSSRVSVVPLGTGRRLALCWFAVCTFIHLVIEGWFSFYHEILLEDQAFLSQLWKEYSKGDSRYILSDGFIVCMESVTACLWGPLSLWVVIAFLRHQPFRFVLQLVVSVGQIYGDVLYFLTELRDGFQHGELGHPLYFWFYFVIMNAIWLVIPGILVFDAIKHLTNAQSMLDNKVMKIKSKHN

MCF7 cells [1] = assay: OCDO production by MCF7 cells incubated with [14C]CE, thin-layer chromatography; assay type: cell-based, human; settings: for % CE / % CT / % OCDO: [14C]CEα, concentration given with each compound, share of labeled oxysterols
Source text: For assays 1 to 5 and in some of the examples given later in this patent application, MCF7 tumor cells, which originate from the American Tissue Culture Collection (ATCC), were used. […] It is desired to study the activity of ChEH in […] cells by silica thin-layer chromatography. The compounds that it is desired to visualize are the CE and CT compounds defined above. In order to visualize the spots corresponding to CE and CT on a chromatography plate, ^14C-labeled CE and CT compounds were synthesized.
In order to be used in assays 1 to 5 which follow, the cells are seeded into 6-well plates at a density of 80 000 cells in a volume of 2 ml. […] After the incubation time desired for the assay, the medium is collected, the cells are washed with cold PBS (phosphate buffer) (2 ml per well) which is pooled with the medium. The cells are then scraped into cold PBS (1 ml for 3 wells); the wells are again rinsed with cold PBS (1 ml for 3 wells). The cell suspension obtained is centrifuged at 1000 rpm for 5 min at 4° C. […] Throughout the rest of this description, the vehicle solvent used is the same as that defined above.
The aqueous and organic radioactivities are counted. The organic phases are brought to dryness under argon. The residue is resuspended in 60 μl of ethanol and then deposited, in a proportion of 20 μl per lane, on to the glass-backed silica plates (Whatman LK-6-DF, 20×20), which are used in the various assays (these plates having been preheated at 100° C. for 1 hour). The migration solvent used is ethyl acetate. The chromatography plates are placed in contact with a “phosphor-screen” plate in a cassette overnight. […] In order to evaluate the more or less dense nature of the spots obtained on the plates, the radioactivity is quantified by densitometry with the “Imagequant”™ computer program.
(§1) Generally, in order to establish the percentages of OCDO inhibition from the thin-layer chromatography (TLC) plates obtained as in assay 2, the radioactive metabolites are identified and quantified on the basis of said plates using a europium-sensitive plate of GP Phosphor screen type (GE Healthcare) and a Storm 840 phosphorimagor (GE Healthcare). The proportion of radiolabeled oxysterols is determined on the autoradiogram obtained by densitometry using the Image Quant 5.2 software. The percentage is calculated on the basis of the ratio between the amount of oxysterols quantified divided by the sum of the amounts of oxysterols (CEE+CE+CT+OCDO). Since the CEE (CE ester) originates exclusively from the CE, the percentage CE is calculated on the basis of the ratio (CE+CEE)/(CE+CEE+CT+OCDO).
Assay 2 given above was therefore completed by measuring the amounts of the products present when the MCF7 tumor cells are incubated as indicated in detail in assay 2.
In order to establish that the link that exists between, on the one hand, the ability of various compounds to inhibit OCDO in an MCF7 tumor cell and, on the other hand, their quality as a ChEH inhibitor, is well-founded, the inhibition coefficients Ki for ChEH relating to a certain number of products was calculated and the production of OCDO by MCF7 cells after incubation of the cells with the same products was measured according to the protocol defined in assay 2 of the present patent application.

MCF7 cells [2] = assay: OCDO production by MCF7 cells incubated with [14C]CT for 24 hours (example 11); assay type: cell-based, human; settings: 10 μM, control = 100
Method: as §1
The following experiments were carried out: MCF7 tumor cells were placed in the presence of 0.5 μM of [^14C]CT and were then incubated for 24 hours in the presence of one of the following products: • 1. vehicle solvent (0.1% ethanol in a PBS buffer) serving as a control (lane 1) • 2. 10 μM of progesterone • 3. 10 μM of U18666A • 4. 100 nM of TCDD • 5. 10 μM of benzo(A)pyrene • 6. 10 μM of resveratrol • 7. 10 μM of PDM2 (Ant. 1).
Thin-layer chromatographies were carried out and FIG. 24 represents the plate obtained. The OCDO production in the treated cells was quantified from the spots of the various lanes, by applying the protocol given in detail in example 7. The results of this quantification are represented by the histogram of FIG. 24.
The amounts of OCDO produced by MCF7 cells, when they are incubated according to the same protocol as defined above with other Ahr receptor antagonists, was also measured, the control test being brought to 100 and the OCDO production being expressed as % of the control (same control as above).

[3] = concentration in μM in parentheses after each molecule, control = 100

Row | Compound | Ki (ChEH) | OCDO production by MCF-7 (% control) (MCF7 cells [1]; [3]) | further results
1 | CC/C(=C(\c1ccc(O)cc1)c1ccc(OCCN(C)C)cc1)c1ccccc1 [4OH-Tamoxifen, 4-[(Z)-1-[4-(2-dimethylaminoethyloxy)-phenyl]-2-phenylbut-1-enyl]phenol] | 0.145 ± 0.004 µM | <1 % control | 
2 | Clc1ccccc1CNC[C@H]1CC[C@H](CNCc2ccccc2Cl)CC1 [AY-9944, trans-1,4-bis(2-chlorobenzaminomethyl)-cyclohexane] | 0.649 ± 0.006 µM | <1 % control | 
3 | CCCCc1oc2ccccc2c1C(=O)c1cc(I)c(OCCN(CC)CC)c(I)c1 [Amiodarone, (2-butyl-1-benzofuran-3-yl)-[4-(2-diethylaminoethyloxy)-3,5-diiodophenyl]methanone] |  | 8 % control | 
4 | Clc1ccc(/C=C/c2cc(Cl)cc(Cl)c2)cc1 [Ant 1, (E)-1-(4′-chlorophenyl)-2-(3,5-dichlorophenyl)-ethene] |  |  | OCDO production by MCF-7 (% control) (MCF7 cells [2]): <1 % control
5 | COc1ccc(/C=C/c2cc(F)cc(F)c2)cc1 [Ant 2, (E)-1-(4′-methoxyphenyl)-2-(3,5-fluorophenyl)-ethene] |  |  | OCDO production by MCF-7 (% control) (MCF7 cells [2]): <1 % control
6 | Fc1ccc(/C=C/c2cc(F)cc(F)c2)cc1 [Ant 3, (E)-1-(4′-fluorophenyl)-2-(3,5-fluorophenyl)-ethene] |  |  | OCDO production by MCF-7 (% control) (MCF7 cells [2]): <1 % control
7 | FC(F)(F)c1ccc(/C=C/c2cc(C(F)(F)F)cc(C(F)(F)F)c2)cc1 [Ant 4, (E)-1-(4′-trifluoromethylphenyl)-2-(3,5-trifluoromethylphenyl)ethene] |  |  | OCDO production by MCF-7 (% control) (MCF7 cells [2]): <1 % control
8 | COc1cc(/C=C/c2ccc(F)cc2)cc(OC)c1 [Ant 5, (E)-1-(4′-fluorophenyl)-2-(3,5-dimethoxy-phenyl)ethene] |  |  | OCDO production by MCF-7 (% control) (MCF7 cells [2]): <1 % control
9 | CC(C)CCC[C@@H](C)[C@H]1CC[C@H]2[C@@H]3C[C@@H]4O[C@@]45C[C@@H](O)CC[C@]5(C)[C@H]3CC[C@]12C [CEα, 5,6-α-epoxycholestan-3β-ol] |  |  | % CE (MCF7 cells [1]; MCF7 cells, three days): 31.5%; % CT (MCF7 cells [1]; MCF7 cells, three days): 41.5%; % OCDO (MCF7 cells [1]; MCF7 cells, three days): 27%
10 | CCN(CC)CCOc1ccc(/C(=C(\Cl)c2ccccc2)c2ccccc2)cc1 [Clomiphene, 2-[4-[(Z)-2-chloro-1,2-di(phenyl)ethenyl]-phenoxy]-N,N-diethylethanamine] |  | <1 % control | 
11 | O=C(CCCN1CCC(O)(c2ccc(Cl)cc2)CC1)c1ccc(F)cc1 [Haloperidol, 4-(4-(4-chlorophenyl)-4-hydroxypiperidin-1-yl)-1-(4-fluorophenyl)butan-1-one] |  | 42 % control | 
12 | COc1ccc(/C(=C(\c2ccccc2)[N+](=O)[O-])c2ccc(OCCN3CCCC3)cc2)cc1 [Nitromiphene, 1-[2-[4-[(Z)-1-(4-methoxyphenyl)-2-nitro-2-phenylethenyl]phenoxy]ethyl]pyrrolidine] | 0.0177 ± 0.006 µM | <1 % control | 
13 | CC(C)(c1ccccc1)c1ccc(OCCN2CCCC2)cc1 [PCPE, 1-(2-(4-(2-phenylpropan-2-yl)phenoxy)ethyl)-pyrrolidine] | 0.0347 ± 0.008 µM | <1 % control | 
14 | CCN(CC)CCOc1ccc(C2C[C@]3(C)C(O)CC[C@H]3[C@@H]3CCc4cc(O)ccc4[C@@H]23)cc1 (some centres unmarked) [RU 39,411, 11-[4-N,N-[diethylaminoethoxy]phenyl]estra-1,3,5(10)triene-3,17-diol] | 0.155 ± 0.008 µM | <1 % control | 
15 | O=C(c1ccc(OCCN2CCCCC2)cc1)c1c(-c2ccc(O)cc2)sc2cc(O)ccc12 [Raloxifene, [6-hydroxy-2-(4-hydroxyphenyl)-1-benzothiophen-3-yl]-[4-(2-piperidin-1-ylethoxy)phenyl]methanone] | 0.0356 ± 0.004 µM | <1 % control | % CE (MCF7 cells [1]; MCF7 cells, three days): 96.5%; % CT (MCF7 cells [1]; MCF7 cells, three days): 3%; % OCDO (MCF7 cells [1]; MCF7 cells, three days): 0.5%
16 | Oc1ccc(C=Cc2cc(O)cc(O)c2)cc1 [Resveratrol] |  |  | OCDO production by MCF-7 (% control) (MCF7 cells [2]): <1 % control
17 | C[C@@H]1CN(CCCn2c3ccccc3c3ccccc32)C[C@H](C)N1 [Rimcazole, 9-[3-[(3S,5R)-3,5-dimethylpiperazin-1-yl]propyl]carbazole] | 2.325 ± 0.008 µM | 12 % control | 
18 | CCCC(C(=O)OCCN(CC)CC)(c1ccccc1)c1ccccc1 [SKF-525A, 2-diethylaminoethyl-2,2-diphenylpentanoate] | 1.904 ± 0.011 µM | <1 % control | 
19 | CCN(CC)CCOc1ccc(Cc2ccccc2)cc1 [Tesmilifene, 2-(4-benzylphenoxy)-N,N-diethylethanamine] | 0.0624 ± 0.003 µM | <1 % control | % CE (MCF7 cells [1]; MCF7 cells, three days): 80.7%; % CT (MCF7 cells [1]; MCF7 cells, three days): 10.5%; % OCDO (MCF7 cells [1]; MCF7 cells, three days): 8.8%
20 | CN1CCN(CCCN2c3ccccc3Sc3ccc(C(F)(F)F)cc32)CC1 [Trifluoroperazine, 10-[3-(4-methylpiperazin-1-yl)propyl]-2-(trifluoromethyl)phenothiazine] | 0.135 ± 0.007 µM | <1 % control | 
21 | CCN(CC)CCOc1ccc(C(O)(Cc2ccc(Cl)cc2)c2ccc(C)cc2)cc1 (centres unmarked) [Triparanol] | 0.0395 ± 0.003 µM | <1 % control | 
22 | CCN(CC)CCO[C@H]1CC[C@@]2(C)C(=CC[C@@H]3[C@@H]2CC[C@]2(C)C(=O)CC[C@@H]32)C1 [U-18666A, 3-beta-(2-(diethylamino)ethoxy)androst-5-en-17-one] | 0.0903 ± 0.005 µM | <1 % control | 
23 | CC(=O)N1CCN(c2ccc(OCC3COC(Cn4ccnc4)(c4ccc(Cl)cc4Cl)O3)cc2)CC1 (centres unmarked) [ketoconazole] |  |  | production of the epoxysterol CE and of its derivatives CT and OCDO (MCF7 cells [1]; 10 μM ketoconazole, three days, MCF7 cells): inhibition of the production of the epoxysterol CE and of its derivatives
24 | CC[C@H](C)C(=O)O[C@H]1C[C@@H](C)C=C2C=C[C@H](C)[C@H](CC[C@@H]3C[C@@H](O)CC(=O)O3)[C@H]21 [lovastatin] |  |  | OCDO production by the MCF7 cells (MCF7 cells [1]; 10 μM, control brought to the value 100): less than 1
25 | (E)-N,3,6,6-tetramethyl-N-(naphthalen-1-ylmethyl)hept-2-en-4-yn-1-amine [Terbinafine] | 9.105 ± 0.033 µM | <1 % control | 
26 | Ibogaine |  |  | OCDO production by MCF-7 (% control) (MCF7 cells [1]): 25 % control
